Reference: patent US10854312B2, “Selective peptide antagonists” (BIONIZ, LLC, priority 2013, dated 2020)
No end group written: not given here.

How the values were obtained:
[1] = tested on: IL-6; test: T1165 cell proliferation assay, IL-6; assay type: cell-based
Method: CTLL2 cells are cultured in the presence of 5 u/ml and 10 u/ml of IL-2 (FIG. 10A) and 2.5 ng/ml and 5 ng/ml of IL-15 (FIG. 10B) in the presence of increasing concentration of BNZ132-PEG-130. T1165 cells are cultured with 0.1 ng/ml of IL-6 (FIG. 10C) and increasing concentration of BNZ132-PEG-130. […] BNZ132-1 was conjugated to BNZ130 via a PEG24 linker. The name of the bi-antagonist peptide is BNZ132-PEG-130. FIG. 10A and FIG. 10B show the results of BNZ132-PEG-130 in IL-2 (FIG. 10A) and IL-15 (FIG. 10B) CTLL2 proliferation assay. Cells were washed and incubated with IL-2 (5 and 10 units/ml), IL-15 (2.5 and 5 ng/ml) in the presence or absence of BNZ132-PEG-130 (0.1-10 μM). Cells were then pulsed with the WST-1 reagent to measure the proliferative response for the next 6 hr (OD450). […] Cells are washed and incubated with IL-6 (0.1 ng/ml) in the presence or absence of BNZ132-PEG-130 (0.1-10 μM) for 24 hours. Cells were then pulsed with WST-1 reagent for the following 6 hr to measure OD450. The BNZ130-1 polypeptide as presented in Table 2, above, is tested for its activity in inhibiting IL-6 activity. T1165 cells that are dependent on human or mouse IL-6 for their growth in vitro are selected. The cell line is cultured in the absence of IL-6, In the presence of IL-6, in the presence of BNZ130-1, and in the presence of IL-6 and BNZ130-1.

[2] = tested on: γc-cytokines; test: Target cytokine spectrum within the γc-family; assay type: cell-based
[3] = tested on: IL-17A and IL-17F; test: Inhibition of IL-17 family members; details: no test described

Substance: LTHLIERSSRAVLQSLLRASRQ [BNZ130-1]
- antagonistic activity on T1165 proliferation in the presence of IL-6 ([1]; Example 11, T1165 cells dependent on IL-6): dose-dependent antagonistic activity
- effect on T1165 cell survival ([1]; Example 11, with or without IL-6): does not affect T1165 survival

Substance: BNZ gamma: polypeptide SEQ ID NO: 130 (Table 6) of IL-15, IL-2 and IL-9 D-helix fragments; probably the same as BNZ132-1 (IKEFLQSFIHIVQSIINT)
- γc-cytokines not inhibited ([2]; IL-4, IL-7 and IL-21): does not exhibit inhibitory activity
- γc-cytokines inhibited ([2]; summary statements, BNZ132-2 and -3 data not shown): inhibitory activity against all of IL-2, IL-15 and IL-9

Substance: BNZ17-1: inhibitory polypeptide SEQ ID NO: 144 of IL-17A and IL-17F target region fragments (Table 7) (YSRSTSPWRYHRDRDPNRYPSDLYHAKC)
- specific inhibition within the IL-17 family [3]: specifically inhibits IL-17A and IL-17F to the exclusion of the remaining family members
